Experimental data as given in patent US20040054130A1, “Insulin potentiating peptides” (priority 2000, published 2004).
Square brackets hold non-standard residues; d marks the D form. Ends that are not written are not given here.

Key:
[1] = system: Zucker fatty (fa/fa) female rats; assay: Acute oral administration, blood glucose; type: in vivo, rat
Method: Overnight fasted Zucker fatty (fa/fa) female rats were administered peptide 3 (ADD9903) by oral gavage at a concentration of 20 μmol/kg of body weight. Rats were then immediately anaesthetized with nembutal administered intraperitoneally in order to avoid variations arising due to activity of the rats. Blood samples were collected from the tail vein at time 0 min (immediately after oral gavage and before anaesthetic), 60 min, 120 min and 180 min, and analyzed for blood glucose by the glucose oxidation method using a YSI Model-2300 STAT glucose analyzer (Yellow Spring, Ohio). Six rats were analyzed for each of the control and treated groups.

[2] = system: Zucker fatty (fa/fa) rats; assay: Basal blood glucose determination after i.p. peptide; type: in vivo, rat; settings: 10 μmol/kg body weight i.p., over 150 min, vs saline
Method: Overnight-fasted Zucker fatty(fa/fa) female rats were anaesthetized with sodium pentobarbitone (60 mg/kg body weight). After 45 min, basal blood glucose samples were taken from the tail vein, followed immediately by intraperitoneal (i.p.) injection of saline (control) or the peptide analogue (test, 10 μmol/kg body weight) in 0.4 ml of saline. Blood samples were taken at 15, 30, 60, 90, 120, 150 minutes after injection, and the blood glucose level in each sample was measured immediately by the glucose oxidase method, using a YSI Model-2300 STAT glucose analyzer (Yellow Spring, Ohio). Six animals for each group were used.
The reduction of basal blood glucose levels in animals by different peptide analogues administered intraperitoneally (i.p.)at a dose of 10 μmol/kg body weight was measured for over 150 min.

Arg-D-Ala-Phe-Phe-NH2 (R[dA]FF-NH2; N-terminus assumed; SMILES C[C@@H](NC(=O)[C@@H](N)CCCNC(=N)N)C(=O)N[C@@H](Cc1ccccc1)C(=O)N[C@@H](Cc1ccccc1)C(N)=O) [Peptide 3]
decrease in blood glucose, oral compared to intraperitoneal administration ([1]; at 120 min (P<0.005)): more profound decrease
time of maximal decrease in blood glucose ([1]; oral gavage 20 μmol/kg (P<0.005)): 120 min
blood glucose levels compared to control rats ([1]; oral gavage 20 μmol/kg, significant from 60 min (P<0.05)): significantly reduced
hypoglycaemic effect (reduction of basal blood glucose level) [2]: significant hypoglycaemic effects
hypoglycaemic effect (reduction of basal blood glucose level) ([2]; listed as Arg-D-Ala-Phe-Phe amide): Increased potency
